# Molecular target: T1, FXR ligand binding domain (GST-FXR LBD fusion protein) (Homo sapiens, UniProt Q96RI1)
# T1 construct: made in house; host or cells: E. coli BL21(pLysS)
# T1 sequence (Q96RI1 193-472 isoform Q96RI1-2 limits assumed): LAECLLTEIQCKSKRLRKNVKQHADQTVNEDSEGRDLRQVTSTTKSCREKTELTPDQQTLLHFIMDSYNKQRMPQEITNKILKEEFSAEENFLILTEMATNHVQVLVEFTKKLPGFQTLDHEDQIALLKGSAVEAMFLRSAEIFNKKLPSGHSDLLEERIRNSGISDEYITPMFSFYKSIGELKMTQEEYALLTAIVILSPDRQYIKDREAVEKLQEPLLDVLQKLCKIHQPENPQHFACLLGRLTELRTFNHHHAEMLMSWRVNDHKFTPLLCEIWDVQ
# Test: Radioligand binding assay (scintillation proximity, radioligand displacement)
# Settings: GST-FXR LBD on SPA beads, 20 nM radioligand, test compound 6×10^−9 M to 2.5×10^−5 M
# Description: The following tests were carried out in order to determine the activity of the compounds of formula (I). Background information on the binding assay can be found in: Nichols J S et al. “Development of a scintillation proximity assay for peroxisome proliferator-activated receptor gamma ligand binding domain”, (1998) Anal. Biochem. 257: 112-119.
# Bacterial and mammalian expression vectors were constructed to produce glutathione-s-transferase (GST) and Gal4 DNA binding domain (GAL) proteins fused to the ligand binding domain (LBD) of human FXR (aa 193-473). To accomplish this, the portions of the sequences encoding the FXR LBD were amplified by polymerase chain reaction (PCR) from a full-length clone by PCR and then subcloned into the plasmid vectors. The final clone was verified by DNA sequence analysis.
# The induction, expression, and subsequent purification of GST-LBD fusion protein was performed in E. coli strain BL21(pLysS) cells by standard methods (Current Protocols in Molecular Biology, Wiley Press, ed. Ausubel et al.).
# Radioligand Binding Assay
# Binding of test substances to the FXR ligand binding domain was assessed in a radioligand displacement assay. The assay was performed in a buffer consisting of 50 mM Hepes, pH 7.4, 10 mM NaCl, 5 mM MgCl2, 0.01% CHAPS. For each reaction well in a 96-well plate, 40 nM of GST-FXR LBD fusion protein was bound to 10 μg glutathione ytrium silicate SPA beads (PharmaciaAmersham) in a final volume of 50 μl by shaking. A radioligand (e.g., 20 nM of 2,N-dicyclohexyl-2-[2-(2,4 dimethoxy-phenyl)-benzoimidazol-1-yl]-acetamide) and test compounds were added, and scintillation proximity counting was performed. All binding assays were performed in 96-well plates and the amount of bound ligand was measured on a Packard TopCount using OptiPlates (Packard). Dose response curves were performed within a range of test compound concentrations from 6×10^−9 M to 2.5×10^−5 M and IC50 values were calculated.
row,Compound,IC50
1,"CO[C@@H](c1ccccc1)c1nc2cc(F)c(F)cc2n1[C@@H](C(=O)Nc1ccc(C(=O)O)cc1)C1CCCCC1 (single isomer, unassigned) [Example 1A]",1900 nM
2,"CO[C@@H](c1ccccc1)c1nc2cc(F)c(F)cc2n1[C@H](C(=O)Nc1ccc(C(=O)O)cc1)C1CCCCC1 (single isomer, unassigned) [Example 1B]",1000 nM
3,"CO[C@H](c1ccccc1)c1nc2cc(F)c(F)cc2n1[C@@H](C(=O)Nc1ccc(C(=O)O)cc1)C1CCCCC1 (single isomer, unassigned) [Example 2A]",1600 nM
4,"CO[C@H](c1ccccc1)c1nc2cc(F)c(F)cc2n1[C@H](C(=O)Nc1ccc(C(=O)O)cc1)C1CCCCC1 (single isomer, unassigned) [Example 2B]",300 nM
5,"CO[C@@H](c1ccccc1)c1nc2cc(F)c(F)cc2n1[C@@H](C(=O)Nc1ccc(C(=O)O)cc1F)C1CCCCC1 (single isomer, unassigned) [Example 3A]",500 nM
6,"CO[C@@H](c1ccccc1)c1nc2cc(F)c(F)cc2n1[C@H](C(=O)Nc1ccc(C(=O)O)cc1F)C1CCCCC1 (single isomer, unassigned) [Example 3B]",400 nM
7,"CO[C@H](c1ccccc1)c1nc2cc(F)c(F)cc2n1[C@@H](C(=O)Nc1ccc(C(=O)O)cc1F)C1CCCCC1 (single isomer, unassigned) [Example 4A]",500 nM
8,"CO[C@H](c1ccccc1)c1nc2cc(F)c(F)cc2n1[C@H](C(=O)Nc1ccc(C(=O)O)cc1F)C1CCCCC1 (single isomer, unassigned) [Example 4B]",30 nM
9,"CO[C@@H](c1ccccc1)c1nc2cc(F)c(F)cc2n1[C@@H](C(=O)Nc1ccc(C(=O)O)cc1C)C1CCCCC1 (single isomer, unassigned) [Example 5A]",300 nM
10,"CO[C@@H](c1ccccc1)c1nc2cc(F)c(F)cc2n1[C@H](C(=O)Nc1ccc(C(=O)O)cc1C)C1CCCCC1 (single isomer, unassigned) [Example 5B]",1100 nM
11,"CO[C@H](c1ccccc1)c1nc2cc(F)c(F)cc2n1[C@@H](C(=O)Nc1ccc(C(=O)O)cc1C)C1CCCCC1 (single isomer, unassigned) [Example 6A]",5000 nM
12,"CO[C@H](c1ccccc1)c1nc2cc(F)c(F)cc2n1[C@H](C(=O)Nc1ccc(C(=O)O)cc1C)C1CCCCC1 (single isomer, unassigned) [Example 6B]",60 nM
13,"CO[C@@H](c1ccccc1)c1nc2cc(F)c(F)cc2n1[C@@H](C(=O)Nc1ccc(C(=O)O)cc1Cl)C1CCCCC1 (single isomer, unassigned) [Example 7A]",300 nM
14,"CO[C@@H](c1ccccc1)c1nc2cc(F)c(F)cc2n1[C@H](C(=O)Nc1ccc(C(=O)O)cc1Cl)C1CCCCC1 (single isomer, unassigned) [Example 7B]",20 nM
15,"CO[C@H](c1ccccc1)c1nc2cc(F)ccc2n1C(C(=O)N[C@H]1CC[C@H](CC(=O)O)CC1)C1CCCCC1 (stereo partly drawn) [Example 11, (trans-4-{2-Cyclohexyl-2-[5-fluoro-2-((R)-methoxy-phenyl-methyl)-benzoimidazol-1-yl]-acetylamino}-cyclohexyl)-acetic acid]",21000 nM
16,"CO[C@H](c1ccccc1)c1nc2cc(F)ccc2n1C(C(=O)N[C@H]1CC[C@H](C(=O)O)CC1)C1CCCCC1 (stereo partly drawn) [Example 12, trans-4-{2-Cyclohexyl-2-[5-fluoro-2-((R)-methoxy-phenyl-methyl)-benzoimidazol-1-yl]-acetylamino}-cyclohexanecarboxylic acid]",6800 nM

# Next, values leading:
row,IC50,Compound
1,200 nM,"6-{(R)-2-Cyclohexyl-2-[5,6-difluoro-2-((S)-methoxy-phenyl-methyl)-benzoimidazol-1-yl]-acetylamino}-nicotinic acid [Example 10A]"
2,100 nM,"6-{(S)-2-Cyclohexyl-2-[5,6-difluoro-2-((S)-methoxy-phenyl-methyl)-benzoimidazol-1-yl]-acetylamino}-nicotinic acid [Example 10B]"
3,400 nM,"CO[C@H](c1ccccc1)c1nc2cc(F)c(F)cc2n1[C@@H](C(=O)Nc1ccc(C(=O)O)cc1Cl)C1CCCCC1 (single isomer, unassigned) [Example 8A]"
4,60 nM,"CO[C@H](c1ccccc1)c1nc2cc(F)c(F)cc2n1[C@H](C(=O)Nc1ccc(C(=O)O)cc1Cl)C1CCCCC1 (single isomer, unassigned) [Example 8B]"
5,1700 nM,"CO[C@@H](c1ccccc1)c1nc2cc(F)c(F)cc2n1[C@@H](C(=O)Nc1ccc(C(=O)O)cn1)C1CCCCC1 (single isomer, unassigned) [Example 9A]"
6,2600 nM,"CO[C@@H](c1ccccc1)c1nc2cc(F)c(F)cc2n1[C@H](C(=O)Nc1ccc(C(=O)O)cn1)C1CCCCC1 (single isomer, unassigned) [Example 9B]"

# — US8143422B2, “Benzimidazole derivatives” (Hoffmann-La Roche Inc., priority 2008, dated 2012)
